Reference: patent US20210255193A1, “LYSINE REACTIVE PROBES AND USES THEREOF” (The Scripps Research Institute, priority 2017, published 2021)

Legend:
Test in all cases: competitive isoTOP-ABPP
Format in all cases: binding
[1] = molecular target: T1, IDH3B Isocitrate dehydrogenase (Homo sapiens, UniProt O43837)
T1 construct: isoTOP-ABPP experiments performed in cell lysates (in vitro); endogenous in cells; host or cells: MDA-MB-231 soluble lysate
Outline: (§1)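 Readout: isotopic light/heavy MS1 peak-area ratio (R, DMSO heavy over compound light), median across peptides sharing a modified lysine. Lysate received fragment (activated esters 50 μM, guanidinylating agents 100 μM final) or DMSO, then 0.1 mM STP-alkyne probe for 1 h at ambient temperature.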

[2] = molecular target: T2, CCDC173 Coiled-coil domain-containing protein 173 (Homo sapiens, UniProt Q0VFZ6); settings: 50 uM, in vitro
T2 construct: isoTOP-ABPP experiments performed in cell lysates (in vitro); endogenous in cells; host or cells: soluble proteome of human cancer cell lines (MDA-MB-231, Ramos, Jurkat)
Outline: as §1

[3] = molecular target: T3, EIF5A2 Eukaryotic translation initiation factor 5A-2 (Homo sapiens, UniProt Q9GZV4); settings: 50 uM, in vitro
T3 construct: isoTOP-ABPP experiments performed in cell lysates (in vitro); endogenous in cells; host or cells: soluble proteome of human cancer cell lines (MDA-MB-231; Ramos and Jurkat also prepared)
Outline: as §1

[4] = molecular target: T4, OAT Ornithine aminotransferase, mitochondrial (Homo sapiens, UniProt P04181); settings: for isoTOP-ABPP reactivity ratio at lysine P04181_K66: 50 uM, 231 sol, in vitro
T4 construct: isoTOP-ABPP experiments performed in cell lysates (in vitro); endogenous in cells; host or cells: MDA-MB-231 soluble lysate
T4 sequence (P04181 26-439): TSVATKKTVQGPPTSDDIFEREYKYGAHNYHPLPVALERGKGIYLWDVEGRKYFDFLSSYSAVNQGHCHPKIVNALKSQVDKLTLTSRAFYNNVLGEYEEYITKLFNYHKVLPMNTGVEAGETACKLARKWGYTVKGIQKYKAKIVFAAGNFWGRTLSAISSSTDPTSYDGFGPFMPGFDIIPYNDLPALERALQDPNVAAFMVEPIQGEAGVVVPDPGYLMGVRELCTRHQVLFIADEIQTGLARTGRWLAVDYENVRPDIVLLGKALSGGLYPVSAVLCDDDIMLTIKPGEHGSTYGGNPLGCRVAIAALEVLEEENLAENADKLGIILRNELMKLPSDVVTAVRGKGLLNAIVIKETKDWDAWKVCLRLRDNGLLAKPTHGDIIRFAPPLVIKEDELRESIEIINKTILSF
Outline: as §1

[5] = molecular target: T5, CCNA2 Cyclin-A2 (Homo sapiens, UniProt P20248); settings: 50 uM, in vitro
T5 construct: isoTOP-ABPP experiments performed in cell lysates (in vitro); endogenous in cells; host or cells: soluble proteome of human cancer cell lines (MDA-MB-231; Ramos and Jurkat also prepared)
Outline: as §1

[6] = molecular target: T6, ACIN1 Apoptotic chromatin condensation inducer in the nucleus (Homo sapiens, UniProt Q9UKV3); settings: 50 uM_231_sol_in vitro
T6 construct: endogenous in cells; host or cells: MDA-MB-231 lysate
Outline: as §1

T2 sequence (Q0VFZ6 whole entry, the tested form may be a part): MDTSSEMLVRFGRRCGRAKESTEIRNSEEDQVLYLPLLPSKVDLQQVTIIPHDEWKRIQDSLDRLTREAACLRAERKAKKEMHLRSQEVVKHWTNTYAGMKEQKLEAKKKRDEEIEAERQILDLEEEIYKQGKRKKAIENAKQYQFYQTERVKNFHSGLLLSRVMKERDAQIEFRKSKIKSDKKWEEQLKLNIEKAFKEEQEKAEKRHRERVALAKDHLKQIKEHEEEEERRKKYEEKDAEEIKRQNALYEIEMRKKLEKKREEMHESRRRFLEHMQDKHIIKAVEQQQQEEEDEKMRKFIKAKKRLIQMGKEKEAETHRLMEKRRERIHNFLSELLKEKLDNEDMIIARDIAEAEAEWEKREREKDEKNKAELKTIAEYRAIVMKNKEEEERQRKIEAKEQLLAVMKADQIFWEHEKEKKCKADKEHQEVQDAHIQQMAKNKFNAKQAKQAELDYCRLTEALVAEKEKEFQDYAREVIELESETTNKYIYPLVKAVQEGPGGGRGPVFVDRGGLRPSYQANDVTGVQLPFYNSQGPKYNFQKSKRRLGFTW
T1 sequence (O43837 35-385): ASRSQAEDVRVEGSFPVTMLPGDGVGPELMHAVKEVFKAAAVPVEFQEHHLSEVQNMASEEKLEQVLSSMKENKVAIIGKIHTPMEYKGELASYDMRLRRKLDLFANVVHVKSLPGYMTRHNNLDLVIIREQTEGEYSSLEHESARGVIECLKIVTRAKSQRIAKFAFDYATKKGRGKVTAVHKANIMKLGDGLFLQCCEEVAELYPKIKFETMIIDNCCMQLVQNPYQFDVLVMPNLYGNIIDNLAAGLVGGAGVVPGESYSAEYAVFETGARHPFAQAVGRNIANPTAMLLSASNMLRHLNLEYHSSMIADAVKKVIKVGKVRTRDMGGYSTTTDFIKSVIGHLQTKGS
T3 sequence (Q9GZV4 whole entry): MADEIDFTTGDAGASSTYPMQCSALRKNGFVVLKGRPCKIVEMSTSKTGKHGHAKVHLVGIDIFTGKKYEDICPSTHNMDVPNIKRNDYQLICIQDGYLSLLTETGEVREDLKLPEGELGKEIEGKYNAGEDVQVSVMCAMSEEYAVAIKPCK
T6 sequence (Q9UKV3 whole entry): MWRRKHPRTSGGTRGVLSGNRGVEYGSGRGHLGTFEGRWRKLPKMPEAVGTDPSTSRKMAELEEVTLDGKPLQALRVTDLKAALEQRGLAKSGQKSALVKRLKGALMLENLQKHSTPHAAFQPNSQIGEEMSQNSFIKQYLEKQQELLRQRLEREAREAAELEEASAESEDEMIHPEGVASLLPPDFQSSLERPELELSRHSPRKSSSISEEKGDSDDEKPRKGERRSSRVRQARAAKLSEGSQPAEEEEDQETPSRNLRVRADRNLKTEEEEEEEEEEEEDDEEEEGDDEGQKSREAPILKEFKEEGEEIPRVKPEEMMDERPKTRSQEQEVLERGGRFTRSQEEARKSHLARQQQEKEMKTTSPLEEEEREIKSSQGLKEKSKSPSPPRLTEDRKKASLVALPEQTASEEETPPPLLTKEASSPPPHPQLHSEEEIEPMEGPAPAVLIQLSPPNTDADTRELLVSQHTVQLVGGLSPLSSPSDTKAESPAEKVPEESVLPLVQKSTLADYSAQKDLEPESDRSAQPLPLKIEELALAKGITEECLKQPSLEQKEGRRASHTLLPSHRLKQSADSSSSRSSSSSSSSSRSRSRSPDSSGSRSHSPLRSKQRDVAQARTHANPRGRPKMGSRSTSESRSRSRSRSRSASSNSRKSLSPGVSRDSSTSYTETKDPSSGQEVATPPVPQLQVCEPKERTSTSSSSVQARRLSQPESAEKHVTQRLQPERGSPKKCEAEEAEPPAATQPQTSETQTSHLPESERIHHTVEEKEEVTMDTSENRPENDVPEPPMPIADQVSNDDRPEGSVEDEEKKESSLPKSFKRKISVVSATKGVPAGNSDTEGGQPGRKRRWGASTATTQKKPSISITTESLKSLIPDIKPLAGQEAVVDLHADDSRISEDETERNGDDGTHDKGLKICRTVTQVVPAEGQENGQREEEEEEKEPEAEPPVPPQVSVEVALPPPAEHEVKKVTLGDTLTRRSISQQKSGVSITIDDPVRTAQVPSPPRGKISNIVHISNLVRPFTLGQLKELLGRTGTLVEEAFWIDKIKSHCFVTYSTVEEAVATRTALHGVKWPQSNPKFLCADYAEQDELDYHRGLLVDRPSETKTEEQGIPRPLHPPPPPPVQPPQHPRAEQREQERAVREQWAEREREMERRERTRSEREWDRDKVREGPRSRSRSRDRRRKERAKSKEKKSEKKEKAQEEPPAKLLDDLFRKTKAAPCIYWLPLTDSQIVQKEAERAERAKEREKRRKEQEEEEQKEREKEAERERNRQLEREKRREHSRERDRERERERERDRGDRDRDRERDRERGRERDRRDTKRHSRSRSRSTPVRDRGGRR
T5 sequence (P20248 whole entry): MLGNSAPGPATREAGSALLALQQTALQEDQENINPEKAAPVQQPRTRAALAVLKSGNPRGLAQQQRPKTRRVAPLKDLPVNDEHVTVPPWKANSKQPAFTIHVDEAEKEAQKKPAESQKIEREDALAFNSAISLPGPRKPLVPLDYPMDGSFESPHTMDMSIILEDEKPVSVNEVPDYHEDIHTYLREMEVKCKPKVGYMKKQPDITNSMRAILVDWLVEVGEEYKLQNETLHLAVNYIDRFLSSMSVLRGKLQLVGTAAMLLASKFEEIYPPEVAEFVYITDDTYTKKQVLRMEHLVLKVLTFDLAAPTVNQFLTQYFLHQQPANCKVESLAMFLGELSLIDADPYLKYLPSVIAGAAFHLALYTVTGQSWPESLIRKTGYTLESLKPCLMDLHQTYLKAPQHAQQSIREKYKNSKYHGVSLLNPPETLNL

## O=C(Oc1c(F)c(F)c(F)c(F)c1F)C(c1ccccc1)c1ccccc1 [fragment 20, Pentafluorophenyl 2,2-diphenylacetate]
[1]; O43837_K207, 50 uM, 231 sol, in vitro
  R value (DMSO/fragment) for probe 1 labeling: 6.5

## O=C(Oc1c(F)c(F)c(F)c(F)c1F)c1cc(C(F)(F)F)cc(C(F)(F)F)c1 [fragment 21, Pentafluorophenyl 3,5-bis(trifluoromethyl)benzoate]
[2]; Q0VFZ6_K312, 231 sol
  R value (DMSO/fragment) for probe 1 labeling: 20.0
[3]; Q9GZV4_K47, 231 sol
  R value (DMSO/fragment) for probe 1 labeling: 5.0

## O=C(Oc1c(F)c(F)c(F)c(F)c1F)C1CCN(C(=O)OCc2ccccc2)CC1 [fragment 24, 1-Benzyl 4-(pentafluorophenyl) piperidine-1,4-dicarboxylate]
[4]
  isoTOP-ABPP reactivity ratio at lysine P04181_K66: 0.6

## Cn1cc(CC(=O)Oc2ccc([N+](=O)[O-])cc2[N+](=O)[O-])c2ccccc21 [fragment 32, 2,4-Dinitrophenyl 2-(1-methyl-1H-indol-3-yl)acetate]
[4]
  isoTOP-ABPP reactivity ratio at lysine P04181_K66: 9.3

## COc1cc(CCC(=O)Oc2ccc([N+](=O)[O-])cc2[N+](=O)[O-])cc(OC)c1OC [fragment 33, 2,4-Dinitrophenyl 3-(3,4,5-trimethoxyphenyl)propanoate]
[5]; 231 sol
  isoTOP-ABPP reactivity ratio at lysine P20248_K54: 5.4
[4]
  isoTOP-ABPP reactivity ratio at lysine P04181_K66: 1.0

## O=C(Oc1ccc([N+](=O)[O-])cc1[N+](=O)[O-])c1ccc2ccccc2n1 [fragment 35, 2,4-Dinitrophenyl quinoline-2-carboxylate]
[2]; sol, 231
  isoTOP-ABPP ratio (R) at liganded lysine Q0VFZ6_K312: 14.4

## O=C(Oc1ccc([N+](=O)[O-])cc1[N+](=O)[O-])c1ccc(-c2ccccc2)cc1 [fragment 37, 2,4-Dinitrophenyl [1,1′-biphenyl]-4-carboxylate]
[5]; sol, 231
  isoTOP-ABPP ratio (R) at liganded lysine P20248_K54: 0.5

## O=C(CC12CC3CC(CC(C3)C1)C2)Oc1ccc([N+](=O)[O-])cc1[N+](=O)[O-] [fragment 38, 2,4-Dinitrophenyl 2-(adamantan-1-yl)acetate]
[3]; sol, 231
  isoTOP-ABPP ratio (R) at liganded lysine Q9GZV4_K47: 1.8

## N#Cc1ccc(C(=O)Oc2ccc([N+](=O)[O-])cc2[N+](=O)[O-])cc1 [fragment 44, 2,4-Dinitrophenyl 4-cyanobenzoate]
[6]
  isoTOP-ABPP ratio, lysine Q9UKV3_K103: 1.0

## O=C(ON1C(=O)CCC1=O)c1cc(C(F)(F)F)cc(C(F)(F)F)c1 [fragment 46, 3,5-Bis(trifluoromethyl)benzoic acid NHS ester]
[6]
  isoTOP-ABPP ratio, lysine Q9UKV3_K103: 16.6

## CC(C)(C)OC(=O)N=C(NC(=O)OC(C)(C)C)n1cccn1 [fragment 50, reference compound]
[1]; 100 uM_231_sol_in vitro
  isoTOP-ABPP ratio, lysine O43837_K207: 3.1
[4]; 100 uM_231_sol_in vitro
  isoTOP-ABPP ratio, lysine P04181_K66: 9.9
